# Molecular target: T1, HCV polymerase (Hepatitis C virus genotype 1b, UniProt Q9WMX2)
# T1 construct: (His)6 (C)
# Assay: biochemical
# Conditions: NS5B polymerase IC50 μM, polymerase assay of Biological Example 1
row,SMILES,IC50
1,"CCc1ccc(-c2oc3nc(N(CCCCCP(C)(=O)O)S(C)(=O)=O)c(I)cc3c2C(=O)NC)cc1 [Example 23.9997, 5-(N-(2-(4-ethylphenyl)-5-iodo-3-(methylcarbamoyl)furo[2,3-b]pyridin-6-yl)methylsulfonamido)pentyl (methyl)phosphinic acid]",0.012 µM
2,"CCOP(C)(=O)CCCN(c1nc2oc(-c3ccc(C)cc3)c(C(=O)NC)c2cc1C1CC1)S(C)(=O)=O (stereo not drawn) [Example 23.99992, ethyl 3-(N-(5-cyclopropyl-3-(methylcarbamoyl)-2-p-tolylfuro[2,3-b]pyridin-6-yl)methylsulfonamido)propyl (methyl)phosphinate]",0.007 µM

# Same assay, conditions: polymerase assay of Biological Example 1; read-out: NS5B polymerase IC50
row,IC50,SMILES
1,0.007 µM,"CNC(=O)c1c(-c2ccc(C)cc2)oc2nc(N(CCCCCCC(=O)O)S(C)(=O)=O)c(C3CC3)cc12 [Example 29.996, 7-(N-(5-cyclopropyl-3-(methylcarbamoyl)-2-p-tolylfuro[2,3-b]pyridin-6-yl)methylsulfonamido) heptanoic acid]"
2,0.002 µM,"CNC(=O)c1c(-c2ccc(C)c(F)c2)oc2nc(N(CCCCC(=O)O)S(C)(=O)=O)c(C3CC3)cc12 [Example 29.999999, 5-(N-(5-cyclopropyl-2-(3-fluoro-4-methylphenyl)-3-(methylcarbamoyl)furo[2,3-b]pyridin-6-yl)methylsulfonamido) pentanoic acid]"
3,0.003 µM,"CNC(=O)c1c(-c2ccc(C)cc2)oc2nc(N(CCCC[C@H](COC)C(=O)O)S(C)(=O)=O)c(C3CC3)cc12 [Example 47.5, (R)-6-(N-(5-Cyclopropyl-3-(methylcarbamoyl)-2-p-tolylfuro[2,3-b]pyridin-6-yl)methylsulfonamido)-2-(methoxymethyl)hexanoic acid]"
4,0.002 µM,"CNC(=O)c1c(-c2ccc(C)cc2)oc2nc(N(CCCC3(C(=O)O)CC3)S(C)(=O)=O)c(C3CC3)cc12 [Example 29.8, 1-(3-(N-(5-cyclopropyl-3-(methylcarbamoyl)-2-p-tolylfuro[2,3-b]pyridin-6-yl)mcthylsulfonamido)propyl) cyclopropanecarboxylic acid]"
5,0.002 µM,"CNC(=O)c1c(-c2ccc(C)cc2)oc2nc(N(CCCC3(C(=O)O)CCC3)S(C)(=O)=O)c(C3CC3)cc12 [Example 29.1, 1-{3-[(5-Cyclopropyl-3-methylcarbamoyl-2-p-tolyl-furo[2,3-b]pyridin-6-yl)-methanesulfonyl-amino]-propyl}-cyclobutanecarboxylic acid]"
6,0.022 µM,"CCOC(=O)C1(CCCN(c2nc3oc(-c4ccc(C)cc4)c(C(=O)NC)c3cc2C2CC2)S(C)(=O)=O)CCNCC1 [Example 29.999993, ethyl 4-(3-(N-(5-cyclopropyl-3-(methylcarbamoyl)-2-p-tolylfuro[2,3-b]pyridin-6-yl)methylsulfonamido)propyl) piperidine-4-carboxylate]"
7,0.002 µM,"CNC(=O)c1c(-c2ccc(C)cc2)oc2nc(N(CCCC(C)(COC)C(=O)O)S(C)(=O)=O)c(C3CC3)cc12 (stereo not drawn) [Example 43.1, 5-(N-(5-cyclopropyl-3-(methylcarbamoyl)-2-p-tolylfuro[2,3-b]pyridin-6-yl)methylsulfonamido)-2-(methoxymethyl)-2-methylpentanoic acid]"
8,0.007 µM,"CNC(=O)c1c(-c2ccc(C)cc2)oc2nc(N(CCOCCBr)S(C)(=O)=O)c(C3CC3)cc12 [Example 29.99994, 6-(N-(2-(2-bromoethoxy)ethyl)methylsulfonamido)-5-cyclopropyl-N-methyl-2-p-tolylfuro[2,3-b]pyridine-3-carboxamide]"
9,0.002 µM,"CCc1ccc(-c2oc3nc(N(CCCC4(C(=O)O)CCOCC4)S(C)(=O)=O)c(C4CC4)cc3c2C(=O)NC)cc1 [Example 29.7, 4-(3-(N-(5-cyclopropyl-2-(4-ethylphenyl)-3-(methylcarbamoyl)furo[2,3-b]pyridin-6-yl)methylsulfonamido)propyl) tetrahydro-2H-pyran-4-carboxylic acid]"

# Second part, the compound before the results:
row,SMILES,IC50
1,"CCc1cc2c(C(=O)NC)c(-c3ccc(F)cc3)oc2nc1N(CCCCC(C)O)S(C)(=O)=O (stereo not drawn) [Example 22.93, 5-ethyl-2-(4-fluorophenyl)-6-(N-(5-hydroxyhexyl)methylsulfonamido)-N-methylfuro[2,3-b]pyridine-3-carboxamide]",0.047 µM
2,"CCc1cc2c(C(=O)NC)c(-c3ccc(F)cc3)oc2nc1N(CCOc1ccccc1OC)S(C)(=O)=O [Example 21.91, 5-ethyl-2-(4-fluorophenyl)-6-(N-(2-(2-methoxyphenoxy)ethyl)methylsulfonamido)-N-methylfuro[2,3-b]pyridine-3-carboxamide]",0.57 µM
3,"CCc1ccc(-c2oc3nc(N(CCCC(C)(CCOC)C(=O)O)S(C)(=O)=O)c(C4CC4)cc3c2C(=O)NC)cc1 (stereo not drawn) [Example 42, 5-(N-(5-Cyclopropyl-2-(4-ethylphenyl)-3-(methylcarbamoyl)furo[2,3-b]pyridin-6-yl)methylsulfonamido)-2-(2-methoxyethyl)-2-methylpentanoic acid]",0.002 µM
4,"CNC(=O)c1c(-c2ccc(F)cc2)oc2nc(N(C)S(C)(=O)=O)c(CCCC(=O)N3CCC[C@H]3C(=O)OC)cc12 [Example 4.1, (S)-methyl 1-(4-(2-(4-fluorophenyl)-3-(methylcarbamoyl)-6-(N-methylmethylsulfonamido)furo[2,3-b]pyridin-5-yl)butanoyl)pyrrolidine-2-carboxylate]",0.112 µM
5,"CCc1cc2c(C(=O)NC)c(-c3ccc(F)cc3)oc2nc1N(CCCN1CCN(C(=O)OC(C)(C)C)CC1)S(C)(=O)=O [Example 21.999, tert-butyl 4-(3-(N-(5-ethyl-2-(4-fluorophenyl)-3-(methylcarbamoyl)furo[2,3-b]pyridin-6-yl)methylsulfonamido)propyl)piperazine-1-carboxylate]",0.112 µM
6,"CCc1cc2c(C(=O)NC)c(-c3ccc(F)cc3)oc2nc1N(CCCS(=O)(=O)C(F)(F)F)S(C)(=O)=O [Example 23.96, 5-ethyl-2-(4-fluorophenyl)-N-methyl-6-(N-(3-(trifluoromethylsulfonyl)propyl)methylsulfonamido) furo[2,3-b]pyridine-3-carboxamide]",0.189 µM
7,"CCc1cc2c(C(=O)NC)c(-c3ccc(F)cc3)oc2nc1N(CCCCOc1ccccc1OC)S(C)(=O)=O [Example 22.1, 5-ethyl-2-(4-fluorophenyl)-6-(N-(4-(2-methoxyphenoxy)butyl)methylsulfonamido)-N-methylfuro[2,3-b]pyridine-3-carboxamide]",0.034 µM
8,"CCc1cc2c(C(=O)NC)c(-c3ccc(F)cc3)oc2nc1N(CC[C@H]1COc2c(OC)cccc21)S(C)(=O)=O [Example 22.9, (R)-5-ethyl-2-(4-fluorophenyl)-6-(N-(2-(7-methoxy-2,3-dihydrobenzofuran-3-yl)ethyl)methylsulfonamido)-N-methylfuro[2,3-b]pyridine-3-carboxamide]",0.023 µM
9,"CNC(=O)c1c(-c2ccc(F)cc2)oc2nc(N(CCCCN)S(C)(=O)=O)c(I)cc12 [Example 20, 6-[(4-Amino-butyl)-methanesulfonyl-amino]-2-(4-fluoro-phenyl)-5-iodo-furo[2,3-b]pyridine-3-carboxylic acid methylamide]",1.84 µM
10,"CNC(=O)c1c(-c2ccc(F)cc2)oc2nc(N(CCCOCCOC)S(C)(=O)=O)c(I)cc12 [Example 18.992, 2-(4-fluorophenyl)-5-iodo-6-(N-(3-(2-methoxyethoxy)propyl)methylsulfonamido)-N-methylfuro[2,3-b]pyridine-3-carboxamide]",0.237 µM
11,"CCc1cc2c(C(=O)NC)c(-c3ccc(F)cc3)oc2nc1N(CC1CCN(C(=O)OC(C)(C)C)CC1)S(C)(=O)=O [Example 21.997, tert-butyl 4-((N-(5-ethyl-2-(4-fluorophenyl)-3-(methylcarbamoyl)furo[2,3-b]pyridin-6-yl)methylsulfonamido)methyl)piperidine-1-carboxylate]",0.148 µM
12,"CCc1cc2c(C(=O)NC)c(-c3ccc(F)cc3)oc2nc1N(CCCN1CCCC1=O)S(C)(=O)=O [Example 22.996, 5-ethyl-2-(4-fluorophenyl)-N-methyl-6-(N-(3-(2-oxopyrrolidin-1-yl)propyl)methylsulfonamido)furo[2,3-b]pyridine-3-carboxamide]",0.059 µM
13,"CCc1cc2c(C(=O)NC)c(-c3ccc(F)cc3)oc2nc1N(CCCC(=O)OC)S(C)(=O)=O [Example 21.1, methyl 4-(N-(5-ethyl-2-(4-fluorophenyl)-3-(methylcarbamoyl)furo[2,3-b]pyridin-6-yl)methylsulfonamido)butanoate]",0.052 µM
14,"CNC(=O)c1c(-c2ccc(C)cc2)oc2nc(N(CCCC3(CC(=O)O)CCOCC3)S(C)(=O)=O)c(C3CC3)cc12 [Example 48, 2-(4-(3-(N-(5-cyclopropyl-3-(methylcarbamoyl)-2-p-tolylfuro[2,3-b]pyridin-6-yl)methylsulfonamido)propyl)tetrahydro-2H-pyran-4-yl)acetic acid]",0.008 µM
15,"CNC(=O)c1c(-c2ccc(F)cc2)oc2nc3c(cc12)[C@H](C)C[C@H](O)CN3S(C)(=O)=O (single isomer, unassigned) [Example 33]",0.17 µM
16,"CCc1cc2c(C(=O)NC)c(-c3ccc(F)cc3)oc2nc1N(CCCO)S(C)(=O)=O [Example 23.2, 5-ethyl-2-(4-fluorophenyl)-6-(N-(3-hydroxypropyl)methylsulfonamido)-N-methylfuro[2,3-b]pyridine-3-carboxamide]",0.144 µM
17,"CCc1cc2c(C(=O)NC)c(-c3ccc(F)cc3)oc2nc1N(CCc1ccc(OC)c(OC)c1)S(C)(=O)=O [Example 22.2, 6-(N-(3,4-dimethoxyphenethyl)methylsulfonamido)-5-ethyl-2-(4-fluorophenyl)-N-methylfuro[2,3-b]pyridine-3-carboxamide]",0.281 µM
18,"CNC(=O)c1c(-c2ccc(C)cc2)oc2nc(N(CCCCC(C(=O)O)S(C)(=O)=O)S(C)(=O)=O)c(C3CC3)cc12 (stereo not drawn) [Example 46, 6-(N-(5-cyclopropyl-3-(methylcarbamoyl)-2-(p-tolyl)furo[2,3-b]pyridin-6-yl)methylsulfonamido)-2-(methylsulfonyl)hexanoic acid]",0.003 µM
19,"CNC(=O)c1c(-c2ccc(C)cc2)oc2nc(N(CCCN)S(C)(=O)=O)c(C3CC3)cc12 [Example 23.999995, 6-(N-(3-aminopropyl)methylsulfonamido)-5-cyclopropyl-N-methyl-2-p-tolylfuro[2,3-b]pyridine-3-carboxamide]",0.014 µM

# From US20120015907A1, “Furopyridine compounds and uses thereof” (NOVARTIS AG, priority 2010, published 2012)
